Results published in publication PMC5700043, “Structural insights into substrate and inhibitor binding sites in human indoleamine 2,3-dioxygenase 1” (Nature Communications, 2017).

What was measured:
[1] = biological target: T1, human indoleamine 2,3-dioxygenase 1 (hIDO1) (Homo sapiens, UniProt P14902); assay: X-ray crystal structure ([…] Å); steady-state activity; type: binding
T1 construct: gene IDO1

[2] = biological target: T2, human indoleamine 2,3-dioxygenase 1 (hIDO1) (Homo sapiens, UniProt P14902, F270G); assay: X-ray crystal structure ([…] Å), two Trp bound; steady-state activity; type: binding
T2 construct: gene IDO1

[3] = biological target: T2, human indoleamine 2,3-dioxygenase 1 (hIDO1); assay: X-ray crystal structure ([…] Å); activity titration (inhibition); type: biochemical
[4] = biological target: T1, human indoleamine 2,3-dioxygenase 1 (hIDO1); assay: X-ray crystal structure ([…] Å); activity titration; type: biochemical

T1 sequence (P14902 whole entry): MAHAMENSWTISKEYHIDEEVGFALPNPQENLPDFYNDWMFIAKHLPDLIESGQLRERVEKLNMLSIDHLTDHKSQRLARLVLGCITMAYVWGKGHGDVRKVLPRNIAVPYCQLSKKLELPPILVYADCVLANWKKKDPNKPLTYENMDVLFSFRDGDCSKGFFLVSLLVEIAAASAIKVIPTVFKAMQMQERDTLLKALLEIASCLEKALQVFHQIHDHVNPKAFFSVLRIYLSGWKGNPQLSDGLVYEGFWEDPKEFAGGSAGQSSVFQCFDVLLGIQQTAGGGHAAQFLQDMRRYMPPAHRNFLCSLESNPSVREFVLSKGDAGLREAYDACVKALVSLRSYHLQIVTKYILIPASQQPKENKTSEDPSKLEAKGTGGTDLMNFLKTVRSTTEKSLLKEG
T2 sequence (P14902 11-403 F270G): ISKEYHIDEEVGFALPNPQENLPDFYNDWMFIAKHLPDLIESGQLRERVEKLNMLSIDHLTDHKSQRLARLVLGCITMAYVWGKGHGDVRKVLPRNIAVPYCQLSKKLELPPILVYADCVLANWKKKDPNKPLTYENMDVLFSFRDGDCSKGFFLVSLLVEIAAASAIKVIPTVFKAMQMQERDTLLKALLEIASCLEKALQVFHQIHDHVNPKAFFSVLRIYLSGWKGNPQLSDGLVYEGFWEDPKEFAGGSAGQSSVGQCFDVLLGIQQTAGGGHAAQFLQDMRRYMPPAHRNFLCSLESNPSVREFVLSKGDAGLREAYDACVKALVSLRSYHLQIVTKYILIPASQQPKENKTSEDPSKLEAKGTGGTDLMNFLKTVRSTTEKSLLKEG

SMILES | X-ray crystal structure (2.40 Å); steady-state activity [1] | X-ray crystal structure (3.03 Å), two Trp bound; steady-state activity [2] | Kd [3] [µM] | Kd [4] [µM]
N[C@@H](Cc1c[nH]c2ccccc12)C(=O)O [Trp] | The substrate Trp binds in the distal heme pocket, which is enclosed by the JK-Loop^C and the DE-Loop | Crystal structure of the F270G-CN-Trp complex in a two Trp-bound state, where both the Sa and Si sites are occupied | – | –
OCCc1c[nH]c2ccccc12 [IDE, 3-indole ethanol] | – | – | ~100 | ~230
